Measured values published in PMC9046087, “Structural basis of tethered agonism of the adhesion GPCRs ADGRD1 and ADGRF1” (Nature, 2022).
pEC50: −log10 of the molar value. Ends that are not written are not given here.

Columns and labels:
Type in all cases: cell-based
ADGRF1 [1] = biological target: T1, ADGRF1 (Homo sapiens, UniProt Q5T601); assay: BRET assay using TRUPATH biosensors, Gi activation of ADGRF1
T1 construct: Flag (N); expressed in transfected cells; host or cells: HEK293F
T1 sequence (Q5T601 20-910): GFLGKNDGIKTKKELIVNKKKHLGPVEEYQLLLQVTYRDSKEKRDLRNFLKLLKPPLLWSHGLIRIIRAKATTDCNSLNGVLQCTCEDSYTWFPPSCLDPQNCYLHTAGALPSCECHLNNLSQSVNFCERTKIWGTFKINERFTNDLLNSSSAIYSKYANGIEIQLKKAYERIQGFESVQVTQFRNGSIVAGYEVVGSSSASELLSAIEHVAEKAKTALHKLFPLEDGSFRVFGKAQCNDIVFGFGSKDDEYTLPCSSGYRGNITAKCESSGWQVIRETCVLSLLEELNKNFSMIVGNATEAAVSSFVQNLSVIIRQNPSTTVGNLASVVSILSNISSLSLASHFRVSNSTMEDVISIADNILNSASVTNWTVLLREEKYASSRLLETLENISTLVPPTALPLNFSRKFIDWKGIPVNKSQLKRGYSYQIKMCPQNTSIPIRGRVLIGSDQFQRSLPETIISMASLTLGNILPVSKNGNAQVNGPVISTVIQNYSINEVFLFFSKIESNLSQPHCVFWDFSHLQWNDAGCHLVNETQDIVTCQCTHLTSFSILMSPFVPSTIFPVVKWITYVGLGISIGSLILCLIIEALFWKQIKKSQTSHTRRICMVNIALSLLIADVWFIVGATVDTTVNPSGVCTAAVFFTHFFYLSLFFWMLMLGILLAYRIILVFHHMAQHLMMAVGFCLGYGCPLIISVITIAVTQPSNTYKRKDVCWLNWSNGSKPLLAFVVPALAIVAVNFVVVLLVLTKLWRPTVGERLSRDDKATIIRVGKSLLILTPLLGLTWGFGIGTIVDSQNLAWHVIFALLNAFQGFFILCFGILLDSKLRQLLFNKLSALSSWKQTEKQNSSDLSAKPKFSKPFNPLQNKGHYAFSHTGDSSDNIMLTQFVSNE
Procedure: (§1) To study the synthetic stalk peptide-induced G protein activation of ADGRD1 and ADGRF1, a BRET assay using TRUPATH biosensors was conducted to measure the proximal interaction between RLuc8 fused to the Gα subunit and GFP2 fused to the Gγ subunit. The TRUPATH suite of biosensors was obtained from Addgene (Addgene kit no. 1000000163) as a gift from B. Roth, including GαsS-RLuc8, Gαi1-RLuc8, Gβ3 and Gγ9-GFP2 as previously described.
(§2) The wild-type or mutant ADGRD1 and ADGRF1 were transiently co-transfected with plasmids encoding Gα-RLuc8 (GαsS-RLuc8 for Gs activation assay; Gαi1-RLuc8 for Gi activation assay), Gβ3 and Gγ9-GFP2 at a ratio of 2:1:1:1 (receptor plasmid, 800 ng; G protein subunit plasmids, 400 ng for each) in 2 ml HEK293F cells at a density of 1.2 × 10^6 cells per ml. Cell cultivation and receptor surface expression measurement were performed as described above. The cells were plated into 96-well white plates (40,000 cells per well) in 60 μl of assay buffer and incubated at 37 °C for 30 min. Then 10 μl of freshly prepared 50 μM coelenterazine 400a (Nanolight Technologies) was added. […] The cells were stimulated with 30 μl of synthetic stalk peptide at different concentrations and the BRET signals were monitored continuously five times. The last measurements were used in data analysis. The BRET ratios were calculated as the ratio of the GFP2 emission to RLuc8 emission.

ADGRF1 [2] = biological target: T2, ADGRF1 (Homo sapiens, UniProt Q5T601, A683G); assay: as above; details: ADGRF1 A683^3.55bG
T2 construct: Flag (N); expressed in transfected cells; host or cells: HEK293F
Procedure: as §1, §2

ADGRF1 [3] = biological target: T3, ADGRF1 (Homo sapiens, UniProt Q5T601, F747A); assay: as above; details: ADGRF1 F747^5.36bA, n = 3
T3 construct: Flag (N); expressed in transfected cells; host or cells: HEK293F
Procedure: as §1, §2

ADGRF1 [4] = biological target: T4, ADGRF1 (Homo sapiens, UniProt Q5T601, F823A); assay: as above; details: ADGRF1 F823^7.42bA
T4 construct: Flag (N); expressed in transfected cells; host or cells: HEK293F
Procedure: as §1, §2

ADGRF1 [5] = biological target: T5, ADGRF1 (Homo sapiens, UniProt Q5T601, G801A); assay: as above; details: ADGRF1 G801^6.50bA
T5 construct: Flag (N); expressed in transfected cells; host or cells: HEK293F
Procedure: as §1, §2

ADGRF1 [6] = biological target: T6, ADGRF1 (Homo sapiens, UniProt Q5T601, L681E); assay: as above; details: ADGRF1 L681^3.53bE
T6 construct: Flag (N); expressed in transfected cells; host or cells: HEK293F
Procedure: as §1, §2

ADGRF1 [7] = biological target: T7, ADGRF1 (Homo sapiens, UniProt Q5T601, P798A); assay: as above; details: ADGRF1 P798^6.47bA
T7 construct: Flag (N); expressed in transfected cells; host or cells: HEK293F
Procedure: as §1, §2

ADGRF1 [8] = biological target: T8, ADGRF1 (Homo sapiens, UniProt Q5T601, Q830A); assay: as above; details: ADGRF1 Q830^7.49bA
T8 construct: Flag (N); expressed in transfected cells; host or cells: HEK293F
Procedure: as §1, §2

ADGRF1 [9] = biological target: T9, ADGRF1 (Homo sapiens, UniProt Q5T601, V732A); assay: as above; details: ADGRF1 V732^ECL2A, n = 3
T9 construct: Flag (N); expressed in transfected cells; host or cells: HEK293F
Procedure: as §1, §2

ADGRF1 [10] = biological target: T10, ADGRF1 (Homo sapiens, UniProt Q5T601, V748A); assay: as above; details: ADGRF1 V748^5.40bA
T10 construct: Flag (N); expressed in transfected cells; host or cells: HEK293F
Procedure: as §1, §2

ADGRF1 [11] = biological target: T11, ADGRF1 (Homo sapiens, UniProt Q5T601, V761A); assay: as above; details: ADGRF1 V761^5.53bA, n = 3
T11 construct: Flag (N); expressed in transfected cells; host or cells: HEK293F
Procedure: as §1, §2

ADGRF1 [12] = biological target: T12, ADGRF1 (Homo sapiens, UniProt Q5T601, Y668A); assay: as above; details: ADGRF1 Y668^3.40bA
T12 construct: Flag (N); expressed in transfected cells; host or cells: HEK293F
Procedure: as §1, §2

ADGRF1 [13] = biological target: T1, ADGRF1; assay: BRET assay using TRUPATH biosensors, Gs activation of ADGRF1; details: Gs, ADGRF1 WT, n = 7
Method in brief: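 G protein activation by synthetic stalk peptides, read as GFP2-to-RLuc8 emission ratio from the fifth of five successive readings. Cells: HEK293F expressing receptor (WT or mutant) with GαsS-RLuc8 or Gαi1-RLuc8 plus Gβ3 and Gγ9-GFP2 (2:1:1:1). Pre-incubated 30 min at 37 °C; substrate coelenterazine 400a.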

[14] = n = 3, read-out: pEC50 (mean ± s.e.m.) (converted)

T5 sequence (Q5T601 20-910 G801A): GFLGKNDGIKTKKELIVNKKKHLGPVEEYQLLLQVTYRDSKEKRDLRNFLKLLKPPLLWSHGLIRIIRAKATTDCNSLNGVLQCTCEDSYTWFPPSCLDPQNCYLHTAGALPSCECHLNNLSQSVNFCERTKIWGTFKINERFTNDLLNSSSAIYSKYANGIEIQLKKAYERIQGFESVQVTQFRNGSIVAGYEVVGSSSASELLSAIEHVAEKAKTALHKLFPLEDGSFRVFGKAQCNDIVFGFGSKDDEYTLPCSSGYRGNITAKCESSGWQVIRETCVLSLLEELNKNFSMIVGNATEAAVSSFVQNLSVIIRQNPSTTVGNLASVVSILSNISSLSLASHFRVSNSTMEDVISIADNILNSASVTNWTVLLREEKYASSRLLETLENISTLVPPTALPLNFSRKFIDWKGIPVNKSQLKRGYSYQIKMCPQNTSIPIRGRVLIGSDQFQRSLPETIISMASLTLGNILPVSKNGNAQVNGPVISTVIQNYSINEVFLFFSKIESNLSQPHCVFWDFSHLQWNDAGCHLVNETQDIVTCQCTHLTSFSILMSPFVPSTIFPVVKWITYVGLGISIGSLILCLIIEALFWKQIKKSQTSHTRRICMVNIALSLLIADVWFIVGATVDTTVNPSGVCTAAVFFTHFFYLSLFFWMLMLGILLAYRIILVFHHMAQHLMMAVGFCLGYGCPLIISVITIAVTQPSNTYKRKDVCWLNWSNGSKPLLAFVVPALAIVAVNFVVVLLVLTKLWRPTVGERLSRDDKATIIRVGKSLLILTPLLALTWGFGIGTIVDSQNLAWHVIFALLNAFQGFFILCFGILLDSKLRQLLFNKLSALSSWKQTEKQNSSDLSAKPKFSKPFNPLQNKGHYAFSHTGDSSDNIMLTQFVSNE
T8 sequence (Q5T601 20-910 Q830A): as the sequence (Q5T601 20-910 G801A) above, with A782G, Q811A counted along it
T12 sequence (Q5T601 20-910 Y668A): as the sequence (Q5T601 20-910 G801A) above, with Y649A, A782G counted along it
T4 sequence (Q5T601 20-910 F823A): as the sequence (Q5T601 20-910 G801A) above, with A782G, F804A counted along it
T3 sequence (Q5T601 20-910 F747A): as the sequence (Q5T601 20-910 G801A) above, with F728A, A782G counted along it
T2 sequence (Q5T601 20-910 A683G): as the sequence (Q5T601 20-910 G801A) above, with A664G, A782G counted along it
T7 sequence (Q5T601 20-910 P798A): as the sequence (Q5T601 20-910 G801A) above, with P779A, A782G counted along it
T6 sequence (Q5T601 20-910 L681E): as the sequence (Q5T601 20-910 G801A) above, with L662E, A782G counted along it
T10 sequence (Q5T601 20-910 V748A): as the sequence (Q5T601 20-910 G801A) above, with V729A, A782G counted along it
T9 sequence (Q5T601 20-910 V732A): as the sequence (Q5T601 20-910 G801A) above, with V713A, A782G counted along it
T11 sequence (Q5T601 20-910 V761A): as the sequence (Q5T601 20-910 G801A) above, with V742A, A782G counted along it

Emax (mean ± s.e.m.) (ADGRF1 [1]; ADGRF1 Construct 1 (structure construct), n = 4): 90 ± 13 % of WT
EC50 (ADGRF1 [1]; ADGRF1 Construct 1 (structure construct), n = 4, read-out: pEC50 (mean ± s.e.m.) (converted)): 100 nM
Emax (mean ± s.e.m.) (ADGRF1 [1]; ADGRF1 WT, n = 30): 100 ± 3 % of WT
EC50 (ADGRF1 [1]; ADGRF1 WT, n = 30, read-out: pEC50 (mean ± s.e.m.) (converted)): 61.7 nM
Emax (mean ± s.e.m.) (ADGRF1 [2]; n = 3): 111 ± 13 % of WT
EC50 (ADGRF1 [2]; [14]): 339 nM
pEC50 (ADGRF1 [3]): 5.91
Emax (mean ± s.e.m.) (ADGRF1 [3]): 80 ± 13 % of WT
Emax (mean ± s.e.m.) (ADGRF1 [4]; n = 3): 90 ± 14 % of WT
EC50 (ADGRF1 [4]; [14]): 316 nM
Emax (mean ± s.e.m.) (ADGRF1 [5]; n = 3): 127 ± 13 % of WT
EC50 (ADGRF1 [5]; [14]): 347 nM
Emax (mean ± s.e.m.) (ADGRF1 [6]; n = 3): 130 ± 12 % of WT
EC50 (ADGRF1 [6]; [14]): 794 nM
Emax (mean ± s.e.m.) (ADGRF1 [7]; n = 3): 94 ± 17 % of WT
EC50 (ADGRF1 [7]; [14]): 912 nM
Emax (mean ± s.e.m.) (ADGRF1 [8]; n = 3): 124 ± 15 % of WT
EC50 (ADGRF1 [8]; [14]): 851 nM
pEC50 (ADGRF1 [9]): 5.71
Emax (mean ± s.e.m.) (ADGRF1 [9]): 73 ± 13 % of WT
Emax (mean ± s.e.m.) (ADGRF1 [10]; n = 3): 85 ± 17 % of WT
EC50 (ADGRF1 [10]; [14]): 56.2 nM
pEC50 (ADGRF1 [11]): 5.79
Emax (mean ± s.e.m.) (ADGRF1 [11]): 124 ± 22 % of WT
Emax (mean ± s.e.m.) (ADGRF1 [12]; n = 3): 123 ± 17 % of WT
EC50 (ADGRF1 [12]; [14]): 355 nM
Emax (mean ± s.e.m.) (ADGRF1 [13]): 100 ± 9 % of WT
EC50 (ADGRF1 [13]; read-out: pEC50 (mean ± s.e.m.) (converted)): 35.5 nM
Sequence: TSFSILMSPFVP [pF1]
